From PubChem BioAssay AID330 (DTP/NCI, 2004)
“And” between values parts separate entries of the source, which are not always exact repeats. Equal entries are not always repeated. Toxic doses and inconclusive results are not listed.

Test system: P388 leukemia ip, CD2F1 mice, survival T/C
Experiment: NCI In Vivo Anticancer Drug Screen. Data for tumor model P388 Leukemia (intraperitoneal) in CD2F1 (CDF1) mice
Conditions: endpoint: median survival time, higher = longer survival
Method in brief: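 Mice carrying the transplanted tumor received test compound or vehicle. Survival was recorded in each group, and the value is the treated-group measurement divided by that of the vehicle-treated control group.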

[1] = dose: 60.0 mg/kg/injection, schedule: Q01DX005 (ip), vehicle: saline with Tween-80
[2] = dose: 120.0 mg/kg/injection, schedule: Q01DX005 (ip), vehicle: saline with Tween-80
[3] = dose: 240.0 mg/kg/injection, schedule: Q01DX005 (ip), vehicle: saline with Tween-80
[4] = dose: 200.0 mg/kg/injection, schedule: Q01DX005 (ip), vehicle: saline with Tween-80
[5] = dose: 50.0 mg/kg/injection, schedule: Q01DX009 (ip), vehicle: saline with Tween-80
[6] = dose: 100.0 mg/kg/injection, schedule: Q01DX009 (ip), vehicle: saline with Tween-80
[7] = dose: 200.0 mg/kg/injection, schedule: Q01DX009 (ip), vehicle: saline with Tween-80
[8] = dose: 50.0 mg/kg/injection, schedule: Q01DX005 (ip), vehicle: saline with Tween-80
[9] = dose: 100.0 mg/kg/injection, schedule: Q01DX005 (ip), vehicle: saline with Tween-80
[10] = dose: 25.0 mg/kg/injection, schedule: Q01DX009 (ip), vehicle: saline with Tween-80

With `C=CCC1(C)C=C(C)C(=O)C(C)=C1` the T/C [1] was 105 % of control, the T/C [2] was 102 % of control and the T/C [3] was 104 % of control.
With `O=C(CCN1C(=O)c2ccccc2C1=O)C(O)CCN1C(=O)c2ccccc2C1=O` (stereo not given) the T/C (dose: 6.25 mg/kg/injection, schedule: Q01DX005 (ip), vehicle: saline with Tween-80) was 98 % of control, the T/C (dose: 12.5 mg/kg/injection, schedule: Q01DX005 (ip), vehicle: saline with Tween-80) was 107 % of control and the T/C (dose: 25.0 mg/kg/injection, schedule: Q01DX005 (ip), vehicle: saline with Tween-80) was 100 % of control. The T/C [4] was 87 % of control.
In the case of `CC(C)(C)NCC(O)c1ccc(O)c(NC=O)c1` (stereo not given), the T/C [5] is reported as 110 % of control, the T/C [6] is reported as 100 % of control and the T/C [7] is reported as 102 % of control.
For `CC1=NN(c2ccccc2)C(=O)/C1=C\c1ccc([N+](=O)[O-])cc1`, the T/C [1] was 104 % of control, the T/C [2] was 101 % of control and the T/C [3] was 103 % of control.
With `O=C1C=CSc2ccccc2N1` the T/C [1] was 110 % of control, the T/C [2] was 103 % of control and the T/C [3] was 101 % of control.
`CC1C(=O)C23CCC4C5(C)CCCC4(CN4CCOC45)C2CCC1C3` (stereo not given) was tested, and the T/C (dose: 1.0 mg/kg/injection, schedule: Q01DX009 (ip), vehicle: Klucel (hydroxypropylcellulose) (HPC)) was 97 % of control, the T/C (dose: 2.0 mg/kg/injection, schedule: Q01DX009 (ip), vehicle: Klucel (hydroxypropylcellulose) (HPC)) was 95 % of control and the T/C (dose: 4.0 mg/kg/injection, schedule: Q01DX009 (ip), vehicle: Klucel (hydroxypropylcellulose) (HPC)) was 98 % of control. The T/C (dose: 8.0 mg/kg/injection, schedule: Q01DX009 (ip), vehicle: Klucel (hydroxypropylcellulose) (HPC)) was 103 % of control.
`CC(C)CCNc1ncnc2c1cnn2C` was tested, and the T/C (dose: 25.0 mg/kg/injection, schedule: Q04DX003 (ip), vehicle: saline) was 95 % of control, the T/C (dose: 50.0 mg/kg/injection, schedule: Q04DX003 (ip), vehicle: saline) was 100 % of control and the T/C (dose: 100.0 mg/kg/injection, schedule: Q04DX003 (ip), vehicle: saline with Tween-80) was 109 % of control.
For `O=C(O)/C(=C\c1c(Cl)[nH]c2ccccc12)NC(=O)c1ccccc1`, the T/C (dose: 100.0 mg/kg/injection, schedule: Q01DX001 (ip), vehicle: saline with Tween-80) was 103 % of control, the T/C (dose: 200.0 mg/kg/injection, schedule: Q01DX001 (ip), vehicle: saline with Tween-80) was 99 % of control and the T/C (dose: 400.0 mg/kg/injection, schedule: Q01DX001 (ip), vehicle: saline with Tween-80) was 98 % of control.
For `Clc1ccc2c(N3CCC(CCC4CCN(c5ncnc6cc(Cl)ccc56)CC4)CC3)ncnc2c1`, the T/C [8] was 96 % of control, the T/C [9] was 94 % of control and the T/C [4] was 88 % of control.
`CC1(C)C2CC=C(CCOC(=S)S)C1C2.[Ni]` (stereo not given) was tested, and the T/C [10] was 90 % of control.
With `COC1=CC(c2ccccc2)=N/C1=C/c1ccc[nH]1` the T/C (dose: 50.0 mg/kg/injection, schedule: Q01DX001 (ip), vehicle: Klucel (hydroxypropylcellulose) (HPC)) was 95 % of control, the T/C (dose: 100.0 mg/kg/injection, schedule: Q01DX001 (ip), vehicle: Klucel (hydroxypropylcellulose) (HPC)) was 100 % of control and the T/C (dose: 200.0 mg/kg/injection, schedule: Q01DX001 (ip), vehicle: Klucel (hydroxypropylcellulose) (HPC)) was 98 % of control.
For `O=C(O)c1ccccc1-c1ccc2ccccc2c1`, the T/C [8] was 94 % of control, the T/C [9] was 105 % of control and the T/C [4] was 110 % of control.
`O=C(NC(=O)c1c(F)cccc1F)Nc1nc2ccccc2s1` was tested, and the T/C (dose: 6.25 mg/kg/injection, schedule: Q01DX009 (ip), vehicle: saline with Tween-80) was 113 % of control, the T/C (dose: 12.5 mg/kg/injection, schedule: Q01DX009 (ip), vehicle: saline with Tween-80) was 100 % of control and the T/C [10] was 105 % of control.
In the case of `O=C(O)C(O)C(O)C1[O][Sb][O]C1CO` (stereo not given), the T/C [8] is reported as 98 % of control, the T/C [9] is reported as 96 % of control and the T/C [4] is reported as 96 % of control.
In the case of `CCCOC1=NC2=NC(N3CCCC3)=NC3=C(Cl)C=C(Cl)C(=N1)N23`, the T/C (dose: 25.0 mg/kg/injection, schedule: Q04DX002 (ip), vehicle: Klucel + Tween-80) is reported as 94 % of control, the T/C (dose: 50.0 mg/kg/injection, schedule: Q04DX002 (ip), vehicle: Klucel + Tween-80) is reported as 87 % of control and the T/C (dose: 100.0 mg/kg/injection, schedule: Q04DX002 (ip), vehicle: Klucel + Tween-80) is reported as 116 % of control and 86 % of control.
In the case of `N#CC1CSCC1=O` (stereo not given), the T/C [10] is reported as 103 % of control, the T/C [5] is reported as 100 % of control and the T/C [6] is reported as 99 % of control.
In the case of `CCOC(=O)c1ccc(NC(=O)Nc2nccs2)cc1`, the T/C [7] is reported as 162 % of control and the T/C (dose: 400.0 mg/kg/injection, schedule: Q01DX009 (ip), vehicle: saline with Tween-80) is reported as 92 % of control.
